The target in data set [1] is T1, 6× His-tagged, full-length IDOL (Homo sapiens, UniProt Q8WY64).
T1 construct: Full length IDOL (1–445) was cloned with a TEV cleavable N-terminal 6xHis tag; made in house; host or cells: Spodoptera frugiperda Sf21 (baculovirus, pFastbac1)
T1 sequence (Q8WY64 1-445): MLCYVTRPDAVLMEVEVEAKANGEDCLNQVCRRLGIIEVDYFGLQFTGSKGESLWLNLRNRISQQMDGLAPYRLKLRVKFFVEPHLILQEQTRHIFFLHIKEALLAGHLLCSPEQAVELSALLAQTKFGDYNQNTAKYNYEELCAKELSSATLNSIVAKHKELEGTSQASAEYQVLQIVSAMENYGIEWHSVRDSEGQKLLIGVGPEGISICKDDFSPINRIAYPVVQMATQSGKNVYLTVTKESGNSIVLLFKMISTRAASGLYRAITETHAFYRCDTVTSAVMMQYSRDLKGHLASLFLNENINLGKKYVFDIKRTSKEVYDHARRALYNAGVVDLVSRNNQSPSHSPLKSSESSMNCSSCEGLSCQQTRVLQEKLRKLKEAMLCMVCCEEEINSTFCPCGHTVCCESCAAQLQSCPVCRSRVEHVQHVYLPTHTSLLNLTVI
Briefly: Surface plasmon resonance (SPR) affinity for IDOL. Format: binding. The following applies: for Kd: SPR, immobilized full-length His-IDOL, saturation at highest concentrations not observed; for binding to IDOL by SPR: linear counterparts of the cyclic peptides. From the text: We initially assessed the affinity of the 6 selected cyclic peptides for IDOL by surface plasmon resonance (SPR). Although saturation at the highest concentrations was not observed, due to hydrophobic effects, Kd values could be determined for five peptides (Table 1). […] The hit rate for our IDOL screen is in line with that for previous SICLOPPS screens.[21],[25] It should be noted that although cyclo-CTIFLL and cyclo-CTLILF contain the same amino acids, changing the order in which these are arranged results in activity loss.
All measurements were performed on a Biacore S200 (GE healthcare) using running buffer 10 mM HEPES, 300 mM NaCl, 1 mM TCEP, 0.05% Tween 20 and 4% DMSO at pH 8.0. In brief, 6× His-tagged, full-length IDOL was immobilized on a NTA-chip (Xantec), to a final level of ∼6000 RU. The chip was pre-loaded with Ni^2+ to facilitate efficient capture of His-tagged protein onto the chip. The activity of the immobilized protein was confirmed using a reference compound.
Supplementary Figure 2. […] Saturation of binding was not observed due to the hydrophobic nature of the peptides
(1 picture or pasted object on this page, not shown here)

In the next data set the test system is T2, RING domain of IDOL.
T2 construct: IDOL RING domain (G356-I445) was expressed as TEV cleavable N-terminal HN6-Lysine-Tag; HN6-Lysine-Tag (TEV-cleavable) (N); made in house; host or cells: E. coli (pET vector)
Briefly: 1H 15N HSQC NMR binding to RING domain. From the text:
(§1) The lead candidates, cyclo-CTIFLL and cyclo-CFFLYT, were next analyzed for binding to the RING domain of IDOL by ^1H ^15N HSQC NMR. We also assessed the binding of each peptide to the FERM domain of IDOL as a negative control. […] It should be noted that the 3 residues affected by cyclo-CFFLYT (named RINGPep1) form part of the PPI interface in the crystal structure of the homodimerized RING domains of IDOL (Fig. 1c and ESI Fig. 6 ^†).[15] Furthermore, mutation of V431R coupled with a L433R mutation is known to result in a dimer deficient IDOL.[15]
(§2) ^15N-labeled RING and FERM domains were prepared for NMR experiments by buffer exchange using Amicon Ultra-4 Centrifugal Filter Units with 3 kDa molecular weight cut-off membranes. Buffer conditions for the NMR studies were 50 mM TRIS-d11 pH 7.5, 200 mM NaCl, 3 mM TCEP, 10% (v/v) D2O for the RING domain and 25 mM TRIS-d11, 25 mM NaPi, pH 7.5, 300 mM NaCl, 3 mM TCEP, 10% (v/v) D2O for the FERM domain. The protein concentrations were 80 μM and 70 μM, for the RING and FERM domain respectively. Two-dimensional NMR SOFAST-HMQC titration experiments were carried out on a Bruker 600 MHz spectrometer equipped with a cryoprobe. […]

The subject of a further data set is T3, FERM domain of IDOL.
T3 construct: made in house; host or cells: E. coli BL21
Nature of the data set: 1H 15N HSQC NMR binding to FERM domain (negative control).
Text: as §1, §2

A short description of data set [2]: Solubility (qualitative remarks). In kind it is physicochemical.
The subject of a further data set is HepG2 cells. The following applies: concentrations up to 100 μM, 72 h. How it is done:
(§3) Cell viability was assessed using the CellTiter-Glo 2.0 assay (Promega) according to the manufacturer's instructions. Briefly, cells were plated at a density of 3.3 × 10^4 cells per well in a 96 well plate and incubated overnight (37 °C, 5% CO2). Cells were treated with increasing concentrations of inhibitor and incubated in lipoprotein depleted serum for 72 h (37 °C, 5% CO2). The plate was equilibrated to room temperature for 30 min prior to the addition an equal volume of CellTiter-Glo 2.0 (Promega) reagent to media. The contents were mixed for 2 min on an orbital shaker to induce cell lysis and the plate incubated at room temperature for 10 min prior to the detection of a luminescent signal.
(§4) Supplementary Figure 11. Cellular viability following peptide treatment. The viability of
(§5) (a ) He pG2 a nd (b ) DIDOL He p G2 cells was determined following treatment with increasing
(§6) concentrations of TAT-RINGPe p2 and TAT-ScramPep (100 µM). […]

A further data set concerns ΔIDOL HepG2 cells. The following applies: concentrations up to 100 μM, 72 h. As for the experimental part: as §3, §4, §5, §6
A further data set deals with T4, 6× His IDOL (Homo sapiens, UniProt Q8WY64).
T4 construct: Full length IDOL (1–445) was cloned with a TEV cleavable N-terminal 6xHis tag; made in house; host or cells: Spodoptera frugiperda Sf21 (baculovirus, pFastbac1)
T4 sequence (Q8WY64 1-445): T1 sequence (Q8WY64 1-445)
Nature of the data set: Microscale thermophoresis (MST) binding to IDOL. The following applies: full length His-IDOL (44 nM). From the text: We sought to improve the affinity of RINGPep1 prior to assessing its effect in cells. We used alanine-scanning to identify residues that were critical to the activity of RINGpep1; we constructed 5 SICLOPPS plasmids where each amino acid (except the set cysteine, which is required for intein splicing) was replaced with alanine. These plasmids were transformed into the IDOL RTHS and assessed for disruption of IDOL homodimerization by drop-spotting. […] We therefore synthesized a handful of RINGPep1 analogues with the second position containing a non-natural phenylalanine analogue. After purification, the affinity of each of these compounds for IDOL was assessed by MST. […] The ability of RINGpep2 to disrupt IDOL homodimerization was assessed in vitro using a competition assay in which increasing concentrations of IDOL were titrated into a 45 nM solution of dye-labelled IDOL. Binding of non-labelled IDOL to dye-labelled IDOL will be observed in the MST signal, allowing the Kd of IDOL homodimerization to be quantified. Using this approach, we measured a Kd of 2.9 ± 0.1 μM for IDOL homodimerization. The experiment was repeated in the presence of RINGpep2 (100 μM), with the expectation that the apparent Kd of IDOL homodimerization would increase in the presence of an inhibitor of IDOL homodimerization.
MST was performed on a Monilith NT.115 system (Nano Temper Technologies, DE). […]
In general terms: Microscale thermophoresis detects binding through changes in fluorescence in a small temperature gradient.

Read-outs that look alike come from different tables or passages of the source. Residues, ends and D or L forms follow the SMILES beside them.

Results on eleven molecules are retold here after article PMC6050537, “Inhibition of low-density lipoprotein receptor degradation with a cyclic peptide that disrupts the homodimerization of IDOL E3 ubiquitin ligase” (Chemical Science, 2018).

As usually defined, the Kd is the concentration at which binding is half-saturated.

Consider `CC[C@H](C)[C@@H]1NC(=O)[C@H](C(C)C)NC(=O)[C@H](C(C)C)NC(=O)[C@H](CO)NC(=O)[C@H](CS)NC(=O)[C@H](CC(C)C)NC1=O` [cyclo-CSVVIL] (HELM PEPTIDE1{C.S.V.V.I.L}$PEPTIDE1,PEPTIDE1,1:R1-6:R2$$$V2.0), for which the Kd in data set [1] (read-out: Kd) was around 1000 µM.

As to `CC[C@H](C)[C@@H]1NC(=O)[C@H]([C@@H](C)O)NC(=O)[C@H](CS)NC(=O)[C@H](CC(C)C)NC(=O)[C@H](CC(C)C)NC(=O)[C@H](Cc2ccccc2)NC1=O` [cyclo-CTIFLL] (HELM PEPTIDE1{C.T.I.F.L.L}$PEPTIDE1,PEPTIDE1,1:R1-6:R2$$$V2.0), the Kd in data set [1] (read-out: Kd) turned out to be 20.9 ± 11 µM. Besides, the “chemical shift changes, RING domain of IDOL” value with RING domain of IDOL is given as “did not observe any chemical shift changes”. The “chemical shift changes, FERM domain of IDOL” value in the data set on FERM domain of IDOL is reported as “did not observe any chemical shift changes”.

Regarding `CC[C@H](C)[C@@H]1NC(=O)[C@H](CC(C)C)NC(=O)[C@H](Cc2ccccc2)NC(=O)[C@H](CC(C)C)NC(=O)[C@H](CCCNC(=N)N)NC(=O)[C@H](CS)NC1=O` [cyclo-CRLFLI] (HELM PEPTIDE1{C.R.L.F.L.I}$PEPTIDE1,PEPTIDE1,1:R1-6:R2$$$V2.0), the Kd in data set [1] (read-out: Kd) was around 3000 µM.

For the molecule “CTIFLL [linear counterpart of cyclo-CTIFLL]”, in data set [1], the “binding to IDOL by SPR” value was “no binding observed”.

With `CC[C@H](C)[C@@H]1NC(=O)[C@H](Cc2ccccc2)NC(=O)[C@H](C(C)C)NC(=O)[C@H]([C@@H](C)O)NC(=O)[C@H](CS)NC(=O)[C@H]([C@@H](C)CC)NC1=O` [cyclo-CTVFII] (HELM PEPTIDE1{C.T.V.F.I.I}$PEPTIDE1,PEPTIDE1,1:R1-6:R2$$$V2.0), the Kd result in data set [1] is “No activity”.

With `CC(C)C[C@@H]1NC(=O)[C@H](CC2CCCCC2)NC(=O)[C@H](Cc2ccccc2)NC(=O)[C@H](CS)NC(=O)[C@H]([C@@H](C)O)NC(=O)[C@H](Cc2ccc(O)cc2)NC1=O` [RINGPep2, cyclo-CF-Cha-LYT] (HELM PEPTIDE1{C.F.[Cha].L.Y.T}$PEPTIDE1,PEPTIDE1,1:R1-6:R2$$$V2.0), the “solubility in the assay buffer” value in data set [2] (autoubiquitination assay buffer) is on record as “poor solubility”. Moreover, the water solubility entry in data set [2] (compared with the 3-(1-naphthyl)-L-alanine analogue) is “marginally better”.

`CC(C)C[C@@H]1NC(=O)[C@H](CC2CCCCC2)NC(=O)[C@H](Cc2ccccc2)NC(=O)[C@H](CSSC[C@H](N)C(=O)NCC(=O)N[C@@H](CCCNC(=N)N)C(=O)N[C@@H](CCCCN)C(=O)N[C@@H](CCCCN)C(=O)N[C@@H](CCCNC(=N)N)C(=O)N[C@@H](CCCNC(=N)N)C(=O)N[C@@H](CCC(N)=O)C(=O)N[C@@H](CCCNC(=N)N)C(=O)N[C@@H](CCCNC(=N)N)C(=O)N[C@@H](CCCNC(=N)N)C(=O)N2CCC[C@H]2C(=O)N2CCC[C@H]2C(=O)N[C@@H](CCC(N)=O)C(=O)O)NC(=O)[C@H]([C@@H](C)O)NC(=O)[C@H](Cc2ccc(O)cc2)NC1=O` [Tat-RINGPep2]: the toxicity entry in the data set with HepG2 cells and in the data set on ΔIDOL HepG2 cells was “no toxicity” in each case.

Turning to `CC(C)C[C@@H]1NC(=O)[C@H](Cc2ccc(O)cc2)NC(=O)[C@H](CSSC[C@H](N)C(=O)NCC(=O)N[C@@H](CCCNC(=N)N)C(=O)N[C@@H](CCCCN)C(=O)N[C@@H](CCCCN)C(=O)N[C@@H](CCCNC(=N)N)C(=O)N[C@@H](CCCNC(=N)N)C(=O)N[C@@H](CCC(N)=O)C(=O)N[C@@H](CCCNC(=N)N)C(=O)N[C@@H](CCCNC(=N)N)C(=O)N[C@@H](CCCNC(=N)N)C(=O)N2CCC[C@H]2C(=O)N2CCC[C@H]2C(=O)N[C@@H](CCC(N)=O)C(=O)O)NC(=O)[C@H](CC2CCCCC2)NC(=O)[C@H]([C@@H](C)O)NC(=O)[C@H](Cc2ccccc2)NC1=O` [Tat-ScramPep], the toxicity entry with HepG2 cells and in the data set with ΔIDOL HepG2 cells was “no toxicity” throughout.

For cyclo-CYLFT[Cha] [ScramPep], the “binding to IDOL by MST” value on 6× His IDOL is reported as “did not bind”.

Turning to `CC[C@H](C)[C@@H]1NC(=O)[C@H](CC(C)C)NC(=O)[C@H]([C@@H](C)O)NC(=O)[C@H](CS)NC(=O)[C@H](Cc2ccccc2)NC(=O)[C@H](CC(C)C)NC1=O` [cyclo-CTLILF] (HELM PEPTIDE1{C.T.L.I.L.F}$PEPTIDE1,PEPTIDE1,1:R1-6:R2$$$V2.0), the Kd in data set [1] (read-out: Kd) is around 10000 µM.

For “CFFLYT [linear counterpart of cyclo-CFFLYT]”, in data set [1], the “binding to IDOL by SPR” value is reported as “no binding observed”.
